Source: the NIST ThermoML archive (doi:10.1016/j.tca.2011.02.002)

Experiments:
[1] = xn = mol fraction of the nth substance listed; conditions: 101 kPa, Liquid; for mass density: Vibrating tube method
[2] = excess molar enthalpy (molar enthalpy of mixing); xn = mol fraction of the nth substance listed; conditions: 308.15 K, 101 kPa, Liquid, 2-drop calorimeter (CSC 4600_

Cc1ccccn1 [2-methylpyridine] + C1CCOCC1
[1]
Conditions	mass density, 298.15 K [kg/m3]	mass density, 303.15 K [kg/m3]	mass density, 308.15 K [kg/m3]	speed of sound, 298.15 K [m/s]	speed of sound, 303.15 K [m/s]	speed of sound, 308.15 K [m/s]
x2 = 0	939.802	935.117	930.414	1380.1	1361	1339.9
x2 = 0.0367	937.731	933.031	928.307	1376.6	1357.6	1336.4
x2 = 0.0731	935.665	930.947	926.208	1373	1354.1	1332.8
x2 = 0.1274	932.552	927.811	923.053	1367.7	1348.5	1327.2
x2 = 0.1751	929.795	925.036	920.257	1363	1343.5	1322
x2 = 0.2373	926.162	921.378	916.581	1356.6	1336.7	1315.2
x2 = 0.2752	923.926	919.13	914.323	1352.6	1332.5	1310.9
x2 = 0.3262	920.901	916.081	911.259	1347.2	1326.7	1305.1
x2 = 0.3817	917.578	912.735	907.895	1341.2	1320.4	1298.7
x2 = 0.4248	914.974	910.121	905.265	1336.5	1315.4	1293.7
x2 = 0.4916	910.915	906.032	901.153	1328.9	1307.5	1285.8
x2 = 0.5525	907.178	902.268	897.366	1322	1300.4	1278.5
x2 = 0.6147	903.336	898.401	893.468	1314.9	1293	1271.1
x2 = 0.6674	900.064	895.101	890.14	1308.7	1286.8	1264.8
x2 = 0.7018	897.916	892.937	887.961	1304.7	1282.7	1260.7
x2 = 0.7736	893.419	888.402	883.383	1296.3	1274.2	1252
x2 = 0.8219	890.381	885.337	880.292	1290.6	1268.4	1246.2
x2 = 0.8673	887.518	882.452	877.377	1285.3	1262.9	1240.7
x2 = 0.9428	882.751	877.641	872.516	1276.5	1253.8	1231.5

[2]
Conditions	excess molar enthalpy [kcal/mol]
x2 = 0.0511	0.00394
x2 = 0.1102	0.00915
x2 = 0.1773	0.016
x2 = 0.2121	0.0196
x2 = 0.2683	0.0253
x2 = 0.3182	0.03
x2 = 0.3905	0.0356
x2 = 0.4304	0.0391
x2 = 0.4822	0.0413
x2 = 0.5216	0.0437
x2 = 0.5755	0.0442
x2 = 0.6213	0.0442
x2 = 0.6786	0.0428
x2 = 0.7288	0.0409
x2 = 0.7754	0.0373
x2 = 0.8216	0.0323
x2 = 0.8852	0.0232
x2 = 0.9217	0.0168
